Measurements reported in patent US5756531A, “Iminoxy derivatives of indole and indene compounds as inhibitors of prostaglandin biosynthesis” (Abbott Laboratories, priority 1996, dated 1998).

How the values were obtained:
[1] = molecular target: T1, recombinant human PGHS-1 (prostaglandin hydroperoxidase -1, cyclooxygenase-1) (Homo sapiens, UniProt P23219); experiment: Recombinant Human PGHS-1 enzyme assay (PGE2 production by EIA); format: biochemical; conditions: 60 min preincubation; 10 μM arachidonic acid
T1 construct: made in house; host or cells: baculovirus/Sf9 insect cells (microsomes)
T1 sequence (P23219 24-599): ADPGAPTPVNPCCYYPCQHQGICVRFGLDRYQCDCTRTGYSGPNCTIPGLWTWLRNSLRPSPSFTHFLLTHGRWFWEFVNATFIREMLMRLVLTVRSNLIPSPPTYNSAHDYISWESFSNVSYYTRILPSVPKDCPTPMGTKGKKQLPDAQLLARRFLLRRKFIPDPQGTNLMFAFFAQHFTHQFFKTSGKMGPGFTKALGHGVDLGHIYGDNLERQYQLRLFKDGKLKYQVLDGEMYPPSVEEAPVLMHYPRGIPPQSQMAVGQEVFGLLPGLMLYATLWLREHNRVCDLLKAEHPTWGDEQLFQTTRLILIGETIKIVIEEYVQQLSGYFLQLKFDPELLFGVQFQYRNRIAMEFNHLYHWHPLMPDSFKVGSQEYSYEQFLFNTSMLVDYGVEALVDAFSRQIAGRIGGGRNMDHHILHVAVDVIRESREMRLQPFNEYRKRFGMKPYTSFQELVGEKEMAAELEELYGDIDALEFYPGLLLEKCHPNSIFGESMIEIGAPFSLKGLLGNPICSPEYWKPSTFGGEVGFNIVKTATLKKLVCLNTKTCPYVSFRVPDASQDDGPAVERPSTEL
Protocol: 1. recombinant human prostaglandin hydroperoxidase -1 (cyclooxygenase-1)
(§1) Compound dissolved in DMSO (3.3% v/v) was preincubated with microsomes from recombinant human PGHS-1 or PGHS-2 expressed in the baculovirus/Sf9 cell system (Gierse, J. K., Hauser, S. D., Creely, D. P., Koboldt, C., Rangwala, S., H., Isakson, P. C., and Seibert, K. Expression and selective inhibition of the constituitive and inducible forms of cyclooxygenase Biochem J. 1995, 305: 479.), together with the cofactors phenol (2 mM) and hematin (1 μM) for 60 minutes prior to the addition of 10 μM arachidonic acid. The reaction was allowed to run for 2.5 minutes at room temperature prior to quenching with HCl and neutralization with NaOH. PGE2 production in the presence and absence of the drug was determined by EIA analysis.
(§2) EIA reagents for prostaglandin determination were purchased from Perseptive Diagnostics, Cambridge, Mass. PGE2 levels in lavage fluids were determined after the samples were dried under nitrogen and reconstituted with assay buffer. PGE2 levels in enzyme assays or cell culture media were measured against standards prepared in the same milieu. The immunoassays were conducted as recommended by the manufacturer. The EIA was conducted in 96 well microtiter plates (Nunc Roskilde, Denmark) and optical density measured using a microplate reader (Vmax, Molecular Devices Corp., Menlo Park, Calif.).

[2] = molecular target: T2, recombinant human PGHS-2 (prostaglandin hydroperoxidase -2, cyclooxygenase-2) (Homo sapiens, UniProt P35354); experiment: Recombinant Human PGHS-2 enzyme assay (PGE2 production by EIA); format: biochemical; conditions: 60 min preincubation; 10 μM arachidonic acid
T2 construct: made in house; host or cells: baculovirus/Sf9 insect cells (microsomes)
T2 sequence (P35354 18-604): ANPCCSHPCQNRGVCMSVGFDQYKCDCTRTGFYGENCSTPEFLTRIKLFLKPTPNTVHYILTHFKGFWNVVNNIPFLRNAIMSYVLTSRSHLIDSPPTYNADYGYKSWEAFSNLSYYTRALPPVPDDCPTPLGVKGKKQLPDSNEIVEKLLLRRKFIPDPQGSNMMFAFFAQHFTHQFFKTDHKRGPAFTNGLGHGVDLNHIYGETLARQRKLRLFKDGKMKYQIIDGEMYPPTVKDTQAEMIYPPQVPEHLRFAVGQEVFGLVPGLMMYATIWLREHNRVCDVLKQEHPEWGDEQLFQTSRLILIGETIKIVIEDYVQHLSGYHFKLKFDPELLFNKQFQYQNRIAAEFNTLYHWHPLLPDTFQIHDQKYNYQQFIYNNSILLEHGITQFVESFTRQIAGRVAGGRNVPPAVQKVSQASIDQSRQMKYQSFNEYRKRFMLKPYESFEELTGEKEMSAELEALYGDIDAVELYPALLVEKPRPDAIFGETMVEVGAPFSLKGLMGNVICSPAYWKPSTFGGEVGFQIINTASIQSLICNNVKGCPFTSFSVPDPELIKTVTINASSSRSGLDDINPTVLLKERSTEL
Protocol: 2. recombinant human prostaglandin hydroperoxidase -2 (cyclooxygenase-2)
as §1, §2

[3] = test system: PGHS-1; conditions: in words; cited from earlier work
[4] = test system: PGHS-2; conditions: in words; cited from earlier work

IC50 [1] [µM]	IC50 [2] [µM]	SMILES	inhibition of PGHS-1 [3]	inhibition of PGHS-2 [4]
24	0.06	COc1ccc2c(c1)c(CCON=CC(O)CO)c(C)n2C(=O)c1ccc(Cl)cc1 (stereo not drawn) [Example 7, glyceraldehyde-O-[2-(1-(4-chlorobenzoyl)-5-methoxy-2-methylindol-3-yl)ethyl] oxime]	–	–
52	0.07	COc1ccc2c(c1)c(CCON=C(C)/C=C/C(=O)O)c(C)n2C(=O)c1ccc(Cl)cc1 [Example 6, 4-oxopent-2-enoic acid-2-O-[2-(4-chlorobenzoyl-5-methoxy-2-methylindol-3-yl)ethyl] oxime]	–	–
–	–	CC1=C(CC(=O)O)c2cc(F)ccc2/C1=C\c1ccc([S+](C)[O-])cc1 (stereo not drawn) [sulindac]	inhibit both PGHS-1 and PGHS-2	inhibit both PGHS-1 and PGHS-2
–	–	COc1ccc2c(c1)c(CC(=O)O)c(C)n2C(=O)c1ccc(Cl)cc1 [Indomethacin, indomethacin]	inhibit both PGHS-1 and PGHS-2	inhibit both PGHS-1 and PGHS-2
–	–	CC(C)Cc1ccc(C(C)C(=O)O)cc1 (stereo not drawn) [ibuprofen]	inhibit both isozymes	inhibit both isozymes
–	–	COc1ccc2cc([C@H](C)C(=O)O)ccc2c1 [naproxen]	inhibit both isozymes	inhibit both isozymes
